Laboratory results reported in patent publication US20220378711A1, “PH-Responsive Nanoparticles for Treating Cancer” (United States Government as represented by the Department …, priority 2021, published 2022).
Like-named read-outs stand apart in the source and are kept apart here.

Tests used:
[1] = LC-MS drug concentration in tumor xenograft tissue; type: in vivo, nude mice; conditions: nude, mouse, intraperitoneal, injected ip as drug-pH NPs, 75 mg/kg SCH772984, 40 mg/kg GEM, read-out: drug concentration in tumor tissues
Procedure: LC-MS analysis of drugs was performed on a Q-TOF Synapt G2S mass spectrometer (Waters, Milford, Mass.) coupled with an Acquity UPLC system (Waters). Drugs were resolved on an ACUITY UPLC HSS T3 column ([…], 100 Å pore diameter, 2.1 mm×150 mm, Waters) with an acetonitrile/water gradient containing 0.1% formic acid. GEM was detected as [M+H]+, and SCH 772984 was detected as [M+2H]2+ in a positive ESI mode.
Next, in vivo studies to obtain information on the systemic stability and tumor enrichment capacity of pH NPs were performed. The fate of drug-encapsulated nanoparticles in the MIA PaCa-2-pancreatic tumor xenograft model in immune-compromised nude mice was studied. Upon intraperitoneal (ip) administration of free or drug-pH NPs [75 mg/kg for SCH772984 and 40 mg/kg for GEM; human equivalent dose (HED)] for 48 h in tumor-bearing mice (N=3), the drug concentrations in tumor tissues was measured using LC-MS.

MIA PaCa-2 cells [2] = assay: Clonogenic survival assay; type: cell-based
Procedure: PDAC cells were seeded at a density of 400 cells/well in 6-well plates. The following day, cells were treated with nanoencapsulated ERKi at a concentration of 0.01 nM, carrier-encapsulated GEM at a concentration of 0.1 nM, and a combination of 0.01 nM encapsulated ERKi, and 0.1 nM encapsulated GEM for 12 days. After the incubation time, the medium was removed, and the cells were fixed with 3:1 methanol/glacial acetic acid for 15 min at room temperature. After the fixing reagent was removed, the cells were stained with 0.5% crystal violet solution (in methanol) for 15 min. The plates were washed thoroughly with tap water to remove residual crystal violet. The plates were dried overnight, and the colonies were counted using Colony Doc-It imaging station using Colony Doc-It imaging software.
To examine the link between ERK and GEM resistance in PDAC cells, a Clonogenic assay was performed for anchorage-dependent growth in MIA PaCa-2 and Panc-1 cell lines in the presence or absence of free or encapsulated ERKi (10 nM) or GEM (100 nM) alone or a combination of these two drugs for 12 days. The half-effective doses of encapsulated ERKi or encapsulated GEM was purposely selected from the preceding studies shown in FIG. 6 and FIG. 7 because these doses of free-drugs have minimal or no effect on PDAC cell viability (FIG. 6) and ERK phosphorylation (FIG. 7).

MIA PaCa-2 cells [3] = assay: MTT cell viability and CompuSyn synergy assay; type: cell-based; conditions: MIA PaCa-2, 72 h MTT
Procedure: (§1) PDAC cells (5000 cells/well) were seeded in 96-well plates and, 24 h later, cells were treated with different concentrations of nanocapsulated SCH 772984, DEM, or their combinations. Control cells were treated with an equivalent level of DMSO. Drug concentrations were optimized for the cell-based assay of the individual drug. At 72 h after treatment, the cell viability assay was performed by adding 10 μL of the 3-(4,5-dimethylthiazol-2-yl)-2,5-diphenyltetrazolium bromide (MTT) reagent to each well, and the plates were incubated for 3 h at 37° C. The MTT reagent was removed, DMSO (100 μL/well) was added to solubilize the crystals, and absorbance was measured at 570 nm. Synergy analysis was performed using CompuSyn software.
(§2) The data was fitted in CompuSyn. These two cell lines were selected because MIA PaCa-2 cells are responsive to ERKi and GEM compared to Panc-1. […] However, consistent with previous studies, the Panc-1 cells were more resistant to these drugs compared to MIA PaCa-2 cells.

Panc-1 cells = assay: MTT cell viability and CompuSyn synergy assay; type: cell-based; conditions: Panc-1, 72 h MTT
Procedure: as §1, §2

[4] = cited from earlier work
[5] = cited from earlier work; remark: listed apart in the source
[6] = system: ERK phosphorylation (p44/p42 MAPK/ERK1/2); assay: Western blot of ERK activity in PDAC cells; type: cell-based
Procedure: Western blot analysis was the same as described in Mol. Cancer Ther. 2019, 18, 788-800. Briefly, cells were seeded at a cell density of 500,000 cells/well in 6-well plates. About 60% of confluent cells were treated with nanoparticles alone (NPA), free ERKi (FEI), or encapsulated ERKi (EEI) for 3 h at 0.001, 0.01, 0.1, 1, and 10 nM concentrations of the drug. Cells were lysed in a lysis buffer (50 mmol/L Tris pH7.4, 150 mmol/L sodium chloride, 1% NP-40, 0.25% sodium deoxycholate, 1 mmol/L EDTA) containing PMSF and Protease/Phosphatase Inhibitor Cocktail (Cell Signaling Technologies). Proteins were quantified with the Pierce BCA protein assay kits (Thermo Fisher Scientific). Under reducing conditions, a […] sample was loaded onto 10% SDS gels for the separation of proteins, and the resulting gel was transferred onto a […] nitrocellulose membrane. The blots were then immersed in a 5% blocking buffer made in Tris base and Tween-20 followed by incubation with antibodies against total-ERK and phospho-ERK primary antibodies (Cell Signaling Technologies; diluted in blocking buffer at 1:1000) overnight. The secondary antibody was incubated for 1 h at room temperature. The signal from the blots was detected using the Super Signal West Femto Maximum Sensitivity substrate (Thermo Fisher).
To determine the functional efficacy of ERKi-pH NPs, the question of whether encapsulated ERKi SCH 772984 can suppress the ERK activity by suppressing ERK phosphorylation (p44/p42 MAPK/ERK1/2) in PDAC cells was investigated. To do so, MIA PaCa-2 cells were exposed to nanoparticles free of SCH 772984 or encapsulated with SCH 772984 with different doses (0.1-100 nM) for 3 hours. Following treatment, total, phospho-ERK, RSK, and GAPDH were determined using Western blot analysis in the cell extracts.

concentration at 48 h [1] [ng/g]	IC50 of free drug compared with encapsulated drug (MIA PaCa-2 cells [3])	IC50 of free drug compared with encapsulated drug (Panc-1 cells)	SMILES	survival and colony-forming ability (MIA PaCa-2 cells [2]; MIA PaCa-2, 12 days, ERKi 10 nM, GEM 100 nM)	pKa [4]	effect of ERKi on GEM's effect on PDAC cells (MIA PaCa-2 cells [2]; ERKi at minimum inhibitory concentration (0.01 nM))	solubility [5]	solubility ([5]; listed as unencapsulated ERKi)	change of pERK level, less than 10 nM encapsulated ERKi ([6]; 10 nM, MIA PaCa-2) [fold]	total ERK and total RSK expression ([6]; MIA PaCa-2, 3 hours)	p-ERK and p-RSK levels ([6]; MIA PaCa-2, 3 hours, dose-dependent)	concentration at which inhibitory effect on p-ERK/p-RSK was first detected ([6]; MIA PaCa-2, 3 hours, doses 0.1-100 nM) [nM]
~4	markedly higher	markedly higher	Nc1ccn([C@@H]2O[C@H](CO)[C@@H](O)C2(F)F)c(=O)n1 [GEM, gemcitabine]	decrease the colony-forming ability of these cells significantly	–	–	–	–	–	–	–	–
–	–	–	CCCCNCCNCCCC [N,N′-dibutylethylenediamine]	–	4.0	–	–	–	–	–	–	–
~2	markedly higher	markedly higher	O=C(Nc1ccc2[nH]nc(-c3ccncc3)c2c1)[C@@H]1CCN(CC(=O)N2CCN(c3ccc(-c4ncccn4)cc3)CC2)C1 [SCH 772984]	–	–	significantly enhances	low water solubility	extremely poor solubility	2.4	did not affect	markedly decreased	100
